In ChEMBL document CHEMBL1130463, “Chemoenzymatic synthesis and characterization of a new type of carbohydrate-based cationic antimicrobial agents” (1997):

Key:
Format in all cases: functional
Vibrio alginolyticus = assay: Minimum inhibitory concentration required for the inhibition of Vibrio alginolyticus
Micrococcus luteus = assay: Minimum inhibitory concentration required for the inhibition of Micrococcus luteus
Fusarium oxysporum = assay: Minimum inhibitory concentration required for the inhibition of Fusarium oxysporum

| SMILES | MIC (Vibrio alginolyticus) [µg/mL] | MIC (Micrococcus luteus) [µg/mL] | MIC (Fusarium oxysporum) [µg/mL] |
| --- | --- | --- | --- |
| CCCCCCCCCCCCCCCCCCCCCCCCCCCCCC(=O)OC[C@@H]1OC(OCCC[N+](C)(C)C)[C@@H](O)[C@@H](O)[C@@H]1O.[I-] (some centres undefined) | 2000 | 1000 |  |
| CCCCCCCCCCCCCCCCCCCCCCCCCC(=O)OC[C@@H]1OC(OCCC[N+](C)(C)C)[C@@H](O)[C@@H](O)[C@@H]1O.[I-] (some centres undefined) | 2000 | 50 |  |
| CCCCCCCCCCCCCCCCCCCCCC(=O)OC[C@@H]1OC(OCCC[N+](C)(C)C)[C@@H](O)[C@@H](O)[C@@H]1O.[I-] (some centres undefined) | 500 | 10 | 500 |
| CCCCCCCCCCCCCCCCCC(=O)OC[C@@H]1OC(OCCC[N+](C)(C)C)[C@@H](O)[C@@H](O)[C@@H]1O.[I-] (some centres undefined) | 2000 | 2000 |  |
